Reference: patent publication US20110224297A1, “Methods of administering prostratin and structural analogs thereof” (priority 2008, published 2011)

Assays:
[1] = In vitro metabolism in rat primary hepatocytes; type: in vitro ADME
Method: (§1) ^3H-Prostratin was incubated in hepatocyte preparations with 0.75×10^6 hepatocytes/ml for 0, 30, 60, and 120 minutes. Hepatocytes were suspended in William's E medium and incubated with 1 μM or 4 μM ^3H-Prostratin at 37° C. in an atmosphere of 4.7-4.8% CO2. Hepatocyte incubations were terminated by addition of acetonitrile. Incubations were profiled for ^3H-Prostratin and metabolites by high performance liquid chromatography using a radioactivity detector.
(§2) Metabolites were subsequently analyzed by liquid chromatography/tandem mass spectrometry (LC/MS/MS) for putative identification. Seven predominant metabolites, identified as M1 through M6 according to their chromatographic order of elution, were detected among both genders of the three species, including two co-eluting metabolites labeled as M3A or M3B. Among the seven metabolites, five were putatively identified by LC/MS/MS, while structures could not be proposed for M2 and M3B.

[2] = In vitro metabolism in monkey primary hepatocytes; type: in vitro ADME; details: monkey hepatocytes of both genders
Method: as §1, §2

[3] = In vitro metabolism in human primary hepatocytes; type: in vitro ADME
Method: as §1, §2

[4] = Extent of metabolism by hepatocytes, rank order across species and genders; type: in vitro ADME, rat, monkey, human; details: 1 μM and 4 μM; up to 120 minutes
Method: as §1, §2

[5] = Quantitative whole body autoradiography of rats following oral administration; type: in vivo, Long Evans rats
Method: The absorption and distribution of ^3H-Prostratin were studied in male and female rats following a single oral administration at 0.2 mg/kg. Four Long Evans male and four Long Evans female rats, after an overnight fast, each received a single oral administration of ^3H-Prostratin as a solution in saline containing <1% of ethanol at a target dose of 0.2 mg/kg. For both males and females, one animal per time point per sex was sacrificed at 1, 4, 8, and 24 hours postdose and carcasses were prepared for whole-body autoradiography (WBA). Blood, plasma, and cellular fraction were analyzed by using liquid scintillation counting (LSC).

[6] = test system: resting CD4+ T cells derived from HIV positive patients; test: Induction of HIV-1 expression in resting CD4+ T cells from HIV positive patients on HAART (p24, co-culture); type: cell-based, human; details: VPA at 1 mM added to cultures treated with prostratin
Method: The ability of prostratin to induce HIV-1 expression in cultures of highly purified resting CD4+ T cells derived from six HIV positive patients on HAART therapy with undetectable plasma viral load (<50 copies/ml) and CD4 cell counts above 350 cells/mm^3 was evaluated. PBMCs were separated using Ficol Hypaque gradient and resting CD4+ T cells were purified using commercially available CD4+ T cell isolation kit (Miltenyi Biotec) Immediately after purification, resting CD4+ T cells were treated for 3 days with two antiretrovirals to which the patient had not previously been exposed. Antiretrovirals were used at concentrations 10 times the 50% inhibitory concentration for wild-type HIV-1 to ensure elimination of any actively replicating virus. Three days after in vitro incubation with antiretrovirals, cells were washed and incubated for 5 h, 24 h, or 48 h with prostratin (50-500 ng/ml), in the absence or presence of 1 mM valproic acid (sodium salt, SIGMA), 10 μg/ml PHA (SIGMA), 50 U IL-2/ml (AIDS depository of reagents, NIH), or in the absence of drugs. At the end of each incubation period, cells were co-cultured with CD8-depleted PBMCs from healthy donors. P24 was measured at days 0, 4, 7, 14, 21, 28, 35 and 42 days.

[7] = female rats, single oral 0.2 mg/kg
[8] = male rats, single oral 0.2 mg/kg

Row | Compound | number of metabolites detected ([1]; female rat hepatocytes) | number of metabolites detected ([1]; male rat hepatocytes) | gender difference in metabolism ([1]; male rat versus female rat hepatocytes) | number of metabolites produced [2] | number of metabolites produced ([3]; both genders of human hepatocytes) | extent of metabolism in human compared with male monkeys ([3]; human hepatocytes) | unique human metabolites ([3]; human hepatocytes) | extent of metabolism by hepatocytes, rank order [4] | maximum blood concentration of radioactivity [5, 7] | maximum plasma concentration of radioactivity [5, 7] | time of maximum blood and plasma concentrations of radioactivity [5, 7] | gender-related difference in tissue distribution of radioactivity ([5]; female versus male rats) | tissue distribution of radioactivity ([5]; male and female rats, single oral 0.2 mg/kg) | maximum blood concentration of radioactivity [5, 8] | maximum plasma concentration of radioactivity [5, 8] | time of maximum blood concentration of radioactivity [5, 8] | time of maximum plasma concentration of radioactivity [5, 8] | enhancement of HIV-1 replication beyond the prostratin effect [6]
1 | CC(=O)O[C@@]12C[C@@H](C)[C@@]3(O)[C@@H](C=C(CO)C[C@]4(O)C(=O)C(C)=C[C@@H]34)[C@@H]1C2(C)C [^3H-Prostratin] | two | Six | more rapid metabolism | five | Five | considerably lower | no unique human metabolites | male monkey>male rat>>female monkey≈male human≈female human>female rat | 59.7 ng equivalents ^3H-Prostratin/g | 63.7 ng equivalents ^3H-Prostratin/g | 1 hour postdose | distributed more widely in female tissues than male tissues | Most of the radioactivity was found in the gastrointestinal (GI) tract | 30.5 ng equivalents ^3H-Prostratin/g | 53.5 ng equivalents ^3H-Prostratin/g | 1 hours postdose | 4 hours postdose | –
2 | CCCC(CCC)C(=O)O [VPA, valproic acid, reference compound] | – | – | – | – | – | – | – | – | – | – | – | – | – | – | – | – | – | did not significantly enhance
